Results reported in patent US20260193294A1, “POLYPEPTIDE INHIBITOR, AND PREPARATION METHOD THEREFOR AND USE THEREOF” (SHANGHAI HANSOH BIOMEDICAL CO., LTD., priority 2022, published 2026).

How the values were obtained:
IL23R = biological target: T1, IL23R (Homo sapiens, UniProt Q5VWK5); assay: Competing with IL23 for binding to IL23R (HTRF, IL23/IL23R binding assay kit); conditions: 2 hours incubation at room temperature
T1 construct: Tag2 (identity not disclosed); purchased PerkinElmer 64BDPIL23PEH
T1 sequence (Q5VWK5 24-355 limits assumed): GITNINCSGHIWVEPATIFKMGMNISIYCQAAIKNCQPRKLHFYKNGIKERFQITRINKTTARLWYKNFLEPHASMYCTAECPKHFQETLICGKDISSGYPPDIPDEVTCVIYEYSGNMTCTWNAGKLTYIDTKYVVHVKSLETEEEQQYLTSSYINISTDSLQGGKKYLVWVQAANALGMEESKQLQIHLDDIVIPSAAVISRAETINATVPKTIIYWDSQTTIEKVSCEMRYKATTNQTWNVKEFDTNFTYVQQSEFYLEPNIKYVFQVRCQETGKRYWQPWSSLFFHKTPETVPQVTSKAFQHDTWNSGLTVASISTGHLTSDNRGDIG
Method: (§1) The compounds of the present disclosure were screened in IL23/IL23R BINDING ASSAY KITS (PerkinElmer Cat #64BDPIL23PEH). The screening of the compounds of the present disclosure was carried out by using a multi-well plate (suitable for HTRF determination). Generally, 2 μl of several compounds of the present disclosure and STANDARD SOLUTIONS in KIT were first respectively added to the wells of the multi-well plate. 4 μl of Tag1-IL23, 4 μl of Tag2-IL23R, and 10 μL of pre-mixed Anti-Tag1 Eu Cryptate Antibody and Anti-Tag2 d2 reagent were necessarily added to all the wells. The multi-well plate was protected from light by an opaque cover membrane, and the opaque cover membrane was then removed
as §1, with “removed after 2 hours of incubation at room temperature. The signal value was read by an HTRF-compatible detection instrument to detect IC50 value.” for “removed”
(§2) The inhibition rate was calculated as follows: […]
By using log (inhibitor) vs. response—Variable slope (four parameters) in Graphpad, the data of HTRF experiment results were subjected to non-linear regression fitting to fit a curve and obtain the IC50 value.

[1] = Pharmacokinetic determination in rats (IV); conditions: male, Sprague-Dawley (SD), rat, plasma, 1 mg/kg
Method: (§3) SD rats were used as test animals to study the pharmacokinetic behavior of the compounds of the examples in the rats (plasma) after oral or IV administration.
Preparation of intravenous drug: PBS
(§4) The compounds of the examples were weighed and dissolved in this solution, vortexed, ultrasonicated for 5 min, and filtered through a 0.22 μm filter membrane to obtain colorless clear solutions with a concentration of 0.2 mg/mL.
(§5) 3 SD rats/group, male were fasted overnight and then respectively administered IV at a dose of 1 mg/kg and a volume of 5 mL/kg.
(§6) • Before administration and at 0.083 h, 0.25 h, 0.5 h, 1.0 h, 2.0 h, 4.0 h, 6.0 h, 8.0 h, and 24.0 h after administration (IV), 0.2 mL of blood was collected from the jugular vein, placed in an EDTA-2K test tube, and centrifuged at 6000 rpm for 6 min at 4° C. to separate plasma, which was stored at −20° C.; and the rats were fed 4 h after administration.
(§7) 1) Acetonitrile (200 μL) was added to the plasma sample (50 μL) for precipitation, and the mixture was mixed and centrifuged at 4500 rpm for 15 min.
(§8) 2) The treated supernatant solution was taken and subjected to LC/MS/MS to analyze the concentrations of the test compounds. LC/MS/MS analysis instrument: AB Sciex Triple Quad 6500+.
(§9) • Liquid phase conditions: Shimadzu LC-30AD pump • Chromatographic column: HALO 90A PFP 2.7 μm 2.1×30 mm, mobile phase: liquid A: 5% acetonitrile aqueous solution (0.1% formic acid), and liquid B: an aqueous solution of 95% acetonitrile (0.1% formic acid) • Flow rate: 0.6 mL/min • Elution time: 0-2.0 min, the eluent was as follows:
(§10) The main pharmacokinetic parameters were calculated using WinNonlin 8.1.

in vivo [2] = conditions: male, Sprague-Dawley (SD), rat, iv, 1 mg/kg
Method: as §3
Preparation of intravenous drug: PBS
as §4, §5, §6, §7, §8, §9, §10

in vivo [3] = conditions: male, beagle, dog, iv, 0.2 mg/kg
Method: (§11) Beagle dogs were used as test animals to study the pharmacokinetic behavior of the compounds of the examples in the rats (plasma) after IV administration.
(§12) 3 beagle dogs/group, male, from Yizheng Anlimao Biotechnology Co., Ltd.
(§13) The compounds of the examples were weighed and dissolved in this solution, vortexed, ultrasonicated for 5 min, and filtered through a 0.22 μm filter membrane to obtain colorless clear solutions with a concentration of 0.1 mg/mL.
(§14) 3 beagle dogs/group, male were fasted overnight and then respectively administered IV at a dose of 0.2 mg/kg and a volume of 2 mL/kg.
(§15) 1) Acetonitrile (200 μL) was added to the plasma sample (50 L) for precipitation, and the mixture was mixed and centrifuged at 4500 rpm for 15 min.
as §8
(§16) Premier Peptide CSH C18 130A 1.7 μm 2.1*100 mm Column, mobile phase: liquid A: 5% acetonitrile aqueous solution (0.1% formic acid), and liquid B: an aqueous solution of 95% acetonitrile (0.1% formic acid) • Flow rate: 0.6 mL/min • Elution time: 0-2.0 min, the eluent was as follows:
as §10

[4] = system: activation of STAT3 phosphorylation by hIL23 in DB cells; assay: Blocking the activation of STAT3 phosphorylation by hIL23 in DB cells (p-STAT3 ELISA); type: cell-based, Human; conditions: DB cells stimulated by rhIL-23 0.5 nM, half an hour; read-out: pStat3 IC50
Method: To determine the inhibitory activity of the compounds of the present disclosure on the activation of STAT3 phosphorylation by hIL23 in DB cells
The compounds produced above were added to DB (ATCC Cat #CRL-2289) cells to inhibit the signal transduction of rhIL-23 cytokine. The screening of compounds was carried out by a multi-well plate (suitable for ELISA assay). Generally, in the presence of some of the above compounds of the present disclosure, 6.25×10^6 cells/ml of DB cells were stimulated by rhIL-23 (0.5 nM, R&D SYSTEMS) in RPMI medium (Invitrogen) containing 10% of FBS, and after half an hour, lysis was carried out on ice using 50 μL of 2×lysis buffer (CST). The content of p-STAT3 in the lysate was determined by PathScan Phospho-Stat3 (Tyr705) Sandwich ELISA Kit (CST Cat #7300C), so as to calculate the activity of the compounds of the present disclosure in blocking rhIL23 signal transduction in DB cells.
as §2
By using log (inhibitor) vs. response—Variable slope (four parameters) in Graphpad, the data of ELISA experiment results were subjected to non-linear regression fitting to fit a curve and obtain the IC50 value.

Solubility in PBS = type: physicochemical; conditions: PBS pH 7.4, room temperature
Method: To study the solubility of the compounds in PBS.
About 2 mg of the compound was weighed, an appropriate amount of a PBS solution was added, and the mixture was dissolved clear by ultrasonication for 10 seconds. No precipitation was found after standing at room temperature overnight.

[5] = Pharmacokinetic determination in beagle dogs (IV); conditions: male, dog, plasma, 0.2 mg/kg
Method: as §11, §12, §13, §14, §15, §8, §16, §10

CC(=O)NCCCC[C@@H]1NC(=O)[C@H](Cc2c[nH]c3c(C)cccc23)NC(=O)[C@H]([C@@H](C)O)NC(=O)[C@H](CC(N)=O)NC(=O)[C@@H](NC(C)=O)C(C)(C)SSC(C)(C)[C@@H](C(=O)N[C@@H](Cc2ccc(OCCN)cc2)C(=O)N[C@@H](Cc2ccc3ccccc3c2)C(=O)NC2(C(=O)N[C@@H](CCC(=O)O)C(=O)N[C@@H](CC(N)=O)C(=O)N[C@@H](Cc3cccnc3)C(=O)N(C)CCNC(=O)CCOCCOCC[N+](C)(C)CCNC(=O)COCCOCCNC(=O)COCCOCCNC(=O)CC[C@H](NC(=O)CCCCCCCCCCCCCCC(=O)O)C(=O)O)CCC(F)(F)CC2)NC1=O [Example 1-16-1]
IC50 (IL23R): 2.73 nM
AUC(0-inf) [1]: 47600 ng·h/mL
AUC(0-t) [1]: 46100 ng·h/mL
C0 [1]: 12600 ng/mL
MRT [1]: 6.2 h
clearance [1]: 0.35 mL/min/kg
half-life (in vivo [2]): 5 h
half-life (in vivo [3]): 53.8 h
IC50 [4]: 0.0048 nM
solubility (Solubility in PBS): 39.6 to 59.4 mg/mL
AUC(0-inf) [5]: 76400 ng·h/mL
AUC(0-t) [5]: 68800 ng·h/mL
C0 [5]: 2750 ng/mL
MRT [5]: 66.9 h
clearance [5]: 0.04 mL/min/kg
